Results from US20160137746A1, “METHODS FOR TREATING HIGH CARDIOVASCULAR RISK PATIENTS WITH HYPERCHOLESTEROLEMIA” (Sanofi Biotechnology, priority 2014, published 2016).

How the values were obtained:
[1] = system: high cardiovascular risk patients with hypercholesterolemia; conditions: human, in vivo, 52 weeks
[2] = system: high cardiovascular risk patients with hypercholesterolemia; assay: ODYSSEY COMBO II: lipid efficacy of alirocumab vs ezetimibe, add-on to maximally tolerated statin; format: in vivo, human; conditions: for Calculated LDL-C percent change from baseline, LS mean (SE): ITT population, MMRM, alirocumab 75 Q2W/Up150 Q2W, ezetimibe 10
Text: Each of the COMBO studies was randomized, double-blinded, and placebo-controlled.
The primary efficacy endpoint for each study was the difference between treatment arms in the percent change in LDL-C from baseline to Week 24.
Apo, apolipoprotein; HDL-C, high-density lipoprotein cholesterol; ITT, intent-to-treat; LDL-C, low-density lipoprotein cholesterol; Lp(a), lipoprotein (a); TG, triglycerides.
COMBO II was a Phase 3, randomized, double-blind, active-controlled, parallel-group, multinational 104-week study. The study enrolled high-risk patients with uncontrolled hypercholesterolemia on stable, maximally tolerated daily statin therapy. Unlike COMBO I, with a placebo arm, COMBO II incorporated an active-treatment arm (ezetimibe) with double-dummy design (FIG. 1B) and patients were not allowed to receive any other lipid lowering therapies besides statin and their randomized treatment.
After randomization, patients entered a double-blind, double-dummy treatment period of 104 weeks.
Primary analyses of efficacy endpoints were conducted using an ITT approach (based on the ITT population defined above), including all lipid data, regardless of whether the patient was continuing therapy or not. This corresponds to ITT estimands, defined for primary and key secondary endpoints. In addition, analyses were also conducted using an on-treatment approach (based on the mITT population defined above), including lipid data collected during the efficacy treatment period. This corresponds to on-treatment estimands of key secondary endpoints.
With regards to the primary efficacy analysis (ITT approach), the percent change in calculated LDL-C from baseline to Week 24 was analyzed using a mixed-effect model with repeated measures (MMRM) approach.

[3] = system: high cardiovascular risk patients with hypercholesterolemia; assay: ODYSSEY COMBO II: safety (TEAEs, adjudicated CV events, laboratory parameters, low LDL-C)
[4] = safety population at 52 weeks, all patients, number (%) of patients
[5] = treatment period, safety population

Compound: O=C1[C@H](CC[C@H](O)c2ccc(F)cc2)[C@@H](c2ccc(O)cc2)N1c1ccc(F)cc1 [Ezetimibe, ezetimibe, reference compound]
- TEAE preferred term: Influenza [1]: 7 (2.9)
- Achieved LDL-C, median ([2]; 24 weeks, FIG. 7): 70 mg/dL
- Calculated LDL-C, LS mean (SE) percent change from baseline ([2]; ITT, Week 24): −20.7 (1.9) %
- Fasting TGs, LS mean percent change from baseline ([2]; ITT, Week 24): −12.8%
- Calculated LDL-C, LS mean (SE) percent change from baseline ([2]; ITT, Week 24, listed as ezetimibe): −20.7%
- Calculated LDL-C percent change from baseline, LS mean (SE) ([2]; Week 4): −25.3 (1.6) %
- Calculated LDL-C percent change from baseline, LS mean (SE) ([2]; Week 8): −24.3 (1.7) %
- Calculated LDL-C percent change from baseline, LS mean (SE) ([2]; Week 12): −21.8 (1.8) %
- Calculated LDL-C percent change from baseline, LS mean (SE) ([2]; Week 16): −23.0 (1.8) %
- Fasting TGs reduced from baseline ([2]; Week 24): 13.3%
- Mean achieved LDL-C ([2]; Week 24): 82.5 (2.0) mg/dL
- Calculated LDL-C percent change from baseline, LS mean (SE) ([2]; Week 24): −20.7 (1.9) %
- Apo-B - Percent change from baseline to Week 24, LS mean vs. baseline ([2]; Week 24, On-treatment analysis): −19.1 (1.4)
- Calculated LDL-C - Percent change from baseline to Week 24, LS mean vs. baseline ([2]; Week 24, On-treatment analysis): −21.8 (1.8) %
- Non-HDL-C - Percent change from baseline to Week 24, LS mean vs. baseline ([2]; Week 24, On-treatment analysis): −20.2 (1.6)
- HDL-C percent change from baseline to week 24 ([2]; Week 24, on-treatment analysis): 0.8 (1.1)
- Lipoprotein(a) percent change from baseline to week 24 ([2]; Week 24, on-treatment analysis): −5.6 (1.9)
- Total cholesterol percent change from baseline to week 24 ([2]; Week 24, on-treatment analysis): −15.2 (1.2)
- Triglycerides (fasted) percent change from baseline to week 24 ([2]; Week 24, on-treatment analysis): −13.3 (2.0)
- Calculated LDL-C percent change from baseline, LS mean (SE) ([2]; Week 36): −19.3 (2.0) %
- Calculated LDL-C percent change from baseline, LS mean (SE) ([2]; Week 52): −18.3 (2.1) %
- Adjudicated cardiovascular events ([3]; in vivo): 3.7%
- SOC gastrointestinal disorders ([3]; in vivo): 13.7%
- SOC infections and infestations ([3]; in vivo): 25.3%
- SOC musculoskeletal and connective tissue disorders ([3]; in vivo): 17.0%
- Treatment-emergent local injection site reactions ([3]; in vivo): 0.8%
- Patients who experienced at least one TEAE ([3]; mean 58 weeks' follow-up): 67.2%
- Serious adverse event ([3]; mean 58 weeks' follow-up): 17.8%
- TEAE leading to death ([3]; mean 58 weeks' follow-up): 4 (1.7%) n (%)
- TEAEs leading to treatment discontinuation ([3]; mean 58 weeks' follow-up): 5.4%
- Laboratory parameters: Blood glucose increased [3, 4]: 3 (1.2)
- Laboratory parameters: Hemoglobin decreased [3, 4]: 2 (0.8)
- Patients experiencing any TEAE [3, 4]: 162 (67.2)
- TEAE preferred term: Accidental overdose [3, 4]: 16 (6.6)
- TEAE preferred term: Angina pectoris [3, 4]: 11 (4.6)
- TEAE preferred term: Arthralgia [3, 4]: 9 (3.7)
- TEAE preferred term: Dizziness [3, 4]: 13 (5.4)
- TEAE preferred term: Headache [3, 4]: 10 (4.1)
- TEAE preferred term: Hypertension [3, 4]: 10 (4.1)
- TEAE preferred term: Myalgia [3, 4]: 12 (5.0)
- TEAE preferred term: Nasopharyngitis [3, 4]: 9 (3.7)
- TEAE preferred term: Upper respiratory tract infection [3, 4]: 14 (5.8)
- TEAE system organ class: Blood and lymphatic system disorders [3, 4]: 8 (3.3)
- TEAE system organ class: Cardiac disorders [3, 4]: 29 (12.0)
- TEAE system organ class: Eye disorders [3, 4]: 9 (3.7)
- TEAE system organ class: Gastrointestinal disorders [3, 4]: 33 (13.7)
- TEAE system organ class: General disorders and administration site conditions [3, 4]: 26 (10.8)
- TEAE system organ class: Infections and infestations [3, 4]: 61 (25.3)
- TEAE system organ class: Injury, poisoning, and procedural complications [3, 4]: 33 (13.7)
- TEAE system organ class: Investigations [3, 4]: 21 (8.7)
- TEAE system organ class: Metabolism and nutrition disorders [3, 4]: 18 (7.5)
- TEAE system organ class: Musculoskeletal and connective tissue disorders [3, 4]: 41 (17.0)
- TEAE system organ class: Neoplasms, benign, malignant and unspecified (including cysts and polyps) [3, 4]: 7 (2.9)
- TEAE system organ class: Nervous system disorders [3, 4]: 40 (16.6)
- TEAE system organ class: Psychiatric disorders [3, 4]: 12 (5.0)
- TEAE system organ class: Renal and urinary disorders [3, 4]: 13 (5.4)
- TEAE system organ class: Reproductive system and breast disorders [3, 4]: 2 (0.8)
- TEAE system organ class: Respiratory, thoracic, and mediastinal disorders [3, 4]: 22 (9.1)
- TEAE system organ class: Skin and subcutaneous tissue disorders [3, 4]: 15 (6.2)
- TEAE system organ class: Vascular disorders [3, 4]: 20 (8.3)
- Patients with 2 consecutive calculated LDL-C value <15 mg/dL [3, 5]: 0/230
- Patients with 2 consecutive calculated LDL-C value <25 mg/dL [3, 5]: 0/230
- Patients with 2 consecutive calculated LDL-C value <25 mg/dL ([3]; treatment period, safety population, listed as ezetimibe): none
